What was measured:
VSVΔ51 in 786-0 cells [1] = format: cell-based, human
VSVΔ51 in 786-0 cells [2] = format: cell-based, human; details: 24 hours

| Compound | effect on FGF2-induced enhancement of virus replication (VSVΔ51 in 786-0 cells [1]) | FGF2-enhancement of virus replication at different MOIs (VSVΔ51 in 786-0 cells [2]) |
| --- | --- | --- |
| CCN(CC)CCCCNc1ncc2cc(-c3cc(OC)cc(OC)c3)c(NC(=O)NC(C)(C)C)nc2n1 [PD173074] | reduces FGF2-induced enhancement of virus replication | – |
| FGF2: recombinant human FGF2 protein; amino acid sequence shown in SEQ ID NO: 9 | – | independent of the MOIs used |

From US10604741B2, “Compositions and methods for enhancing virus replication” (TURNSTONE LIMITED PARTNERSHIP, priority 2013, dated 2020)
